Source: US20230365541A1, “INHIBITOR OF ENHANCER OF ZESTE HOMOLOGUE 2, AND USE THEREOF” (HAISCO PHARMACEUTICALS PTE. LTD., priority 2020, published 2023)

Experiments:
SU-DHL-6 cells = experiment: SU-DHL-6 cell proliferation test; format: cell-based, human; conditions: incubated for 14 days
Protocol: SU-DHL-6 cells are human B-cell lymphoma cell lines purchased from ATCC and cultured under the following conditions: RPMI-1640+10% FBS+1% double antibody in a 37° C., 5% CO2 incubator. The cells were plated in a 12-well plate, with a cell concentration of 1×10^5 cells/mL. After the cells were plated, the compounds at different concentrations were added and cultured in a 37° C., 5% CO2 incubator. The cells were counted every 3-4 days (Countstar automated cell counter), centrifuged to remove the supernatant, re-diluted to 1×10^5 cells/mL and plated, and then the compounds at different concentrations were further added. After the mixture was incubated for 14 days and the cells were counted, the test was terminated, and the IC50 values were calculated by using the Origen9.2 software.

EZH2 = EZH2 (Homo sapiens (Human), UniProt Q15910); experiment: Test method for EZH2 enzyme activity; format: biochemical; conditions: H3K27(21-44) and [3H]-SAM
Procedure, shortened: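 EZH2 (3 nM final) preincubated 15 min with compound in Tris-HCl pH 9.0 buffer, then H3K27(21-44) peptide and [3H]-SAM added (mixture at 200 nM and 100 nM) for 60 min at room temperature. Reaction quenched with cold SAM; flashplate scintillation read, inhibition normalized to controls and IC50 fitted.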

Chain of EZH2 (Q15910 other isoform, or with tags, fused parts or gaps isoform Q15910-2): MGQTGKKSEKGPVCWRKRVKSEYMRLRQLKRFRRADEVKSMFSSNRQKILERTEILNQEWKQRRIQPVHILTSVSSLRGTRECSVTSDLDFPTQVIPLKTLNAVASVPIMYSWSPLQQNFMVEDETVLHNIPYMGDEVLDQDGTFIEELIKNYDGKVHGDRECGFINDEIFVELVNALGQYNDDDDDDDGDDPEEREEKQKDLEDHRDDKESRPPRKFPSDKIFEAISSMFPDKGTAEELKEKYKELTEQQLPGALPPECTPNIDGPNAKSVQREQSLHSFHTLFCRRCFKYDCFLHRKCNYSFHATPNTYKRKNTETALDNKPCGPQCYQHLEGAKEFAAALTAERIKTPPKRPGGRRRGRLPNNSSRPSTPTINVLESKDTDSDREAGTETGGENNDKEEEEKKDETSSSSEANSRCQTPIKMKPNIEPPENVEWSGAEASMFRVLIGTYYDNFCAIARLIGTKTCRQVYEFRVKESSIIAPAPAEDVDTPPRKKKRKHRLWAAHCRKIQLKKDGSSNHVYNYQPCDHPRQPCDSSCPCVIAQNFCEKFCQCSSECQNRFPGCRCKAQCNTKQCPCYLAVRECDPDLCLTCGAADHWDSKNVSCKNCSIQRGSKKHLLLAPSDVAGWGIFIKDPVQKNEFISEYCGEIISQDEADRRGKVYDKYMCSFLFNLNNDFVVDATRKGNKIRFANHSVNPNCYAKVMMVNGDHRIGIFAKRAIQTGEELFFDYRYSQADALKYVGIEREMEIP
Chain of EZH2 (O75530 2-441 partner): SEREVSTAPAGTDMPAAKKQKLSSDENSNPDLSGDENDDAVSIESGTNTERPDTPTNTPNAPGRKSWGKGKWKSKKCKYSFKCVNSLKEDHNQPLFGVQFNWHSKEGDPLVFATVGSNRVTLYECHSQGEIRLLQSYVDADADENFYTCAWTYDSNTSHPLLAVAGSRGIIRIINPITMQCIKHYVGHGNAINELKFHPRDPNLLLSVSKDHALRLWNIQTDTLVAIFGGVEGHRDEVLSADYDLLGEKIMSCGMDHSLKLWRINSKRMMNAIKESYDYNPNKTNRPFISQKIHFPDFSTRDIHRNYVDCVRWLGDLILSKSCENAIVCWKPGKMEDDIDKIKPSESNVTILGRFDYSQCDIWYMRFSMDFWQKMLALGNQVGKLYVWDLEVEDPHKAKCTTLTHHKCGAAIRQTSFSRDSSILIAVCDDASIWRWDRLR
Chain of EZH2 (Q15022 2-739 partner): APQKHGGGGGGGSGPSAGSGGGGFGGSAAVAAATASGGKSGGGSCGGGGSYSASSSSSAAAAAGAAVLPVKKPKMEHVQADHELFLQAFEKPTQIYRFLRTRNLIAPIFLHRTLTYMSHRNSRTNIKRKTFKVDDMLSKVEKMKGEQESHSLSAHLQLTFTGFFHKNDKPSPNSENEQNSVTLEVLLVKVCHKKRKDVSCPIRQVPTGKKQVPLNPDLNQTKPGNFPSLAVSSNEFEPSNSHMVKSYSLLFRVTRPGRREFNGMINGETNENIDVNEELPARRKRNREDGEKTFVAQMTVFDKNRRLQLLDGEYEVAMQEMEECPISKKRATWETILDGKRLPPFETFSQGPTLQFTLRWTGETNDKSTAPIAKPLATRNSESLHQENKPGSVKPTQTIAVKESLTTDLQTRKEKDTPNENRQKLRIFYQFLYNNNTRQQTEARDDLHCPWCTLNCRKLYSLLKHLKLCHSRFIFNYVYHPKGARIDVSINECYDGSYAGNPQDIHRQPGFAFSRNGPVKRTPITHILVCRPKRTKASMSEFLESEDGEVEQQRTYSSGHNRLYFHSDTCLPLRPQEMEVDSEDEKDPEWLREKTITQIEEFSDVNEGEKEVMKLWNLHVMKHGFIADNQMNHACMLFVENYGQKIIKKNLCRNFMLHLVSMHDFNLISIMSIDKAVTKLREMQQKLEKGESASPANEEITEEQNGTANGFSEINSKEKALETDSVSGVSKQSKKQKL
Chain of EZH2 (Q09028 2-425 partner): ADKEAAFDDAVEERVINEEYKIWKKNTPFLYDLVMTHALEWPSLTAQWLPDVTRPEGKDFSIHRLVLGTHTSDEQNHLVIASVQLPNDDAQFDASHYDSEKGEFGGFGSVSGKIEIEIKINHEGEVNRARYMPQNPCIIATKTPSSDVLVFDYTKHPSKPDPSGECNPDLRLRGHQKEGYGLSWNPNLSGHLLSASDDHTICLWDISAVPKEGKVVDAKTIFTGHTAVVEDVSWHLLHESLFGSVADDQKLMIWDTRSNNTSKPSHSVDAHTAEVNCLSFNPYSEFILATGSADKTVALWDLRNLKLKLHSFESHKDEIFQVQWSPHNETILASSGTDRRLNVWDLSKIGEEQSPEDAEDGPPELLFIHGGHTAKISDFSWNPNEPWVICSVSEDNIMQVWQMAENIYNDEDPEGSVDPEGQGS
Chain of EZH2 (Q6ZN18 whole entry partner): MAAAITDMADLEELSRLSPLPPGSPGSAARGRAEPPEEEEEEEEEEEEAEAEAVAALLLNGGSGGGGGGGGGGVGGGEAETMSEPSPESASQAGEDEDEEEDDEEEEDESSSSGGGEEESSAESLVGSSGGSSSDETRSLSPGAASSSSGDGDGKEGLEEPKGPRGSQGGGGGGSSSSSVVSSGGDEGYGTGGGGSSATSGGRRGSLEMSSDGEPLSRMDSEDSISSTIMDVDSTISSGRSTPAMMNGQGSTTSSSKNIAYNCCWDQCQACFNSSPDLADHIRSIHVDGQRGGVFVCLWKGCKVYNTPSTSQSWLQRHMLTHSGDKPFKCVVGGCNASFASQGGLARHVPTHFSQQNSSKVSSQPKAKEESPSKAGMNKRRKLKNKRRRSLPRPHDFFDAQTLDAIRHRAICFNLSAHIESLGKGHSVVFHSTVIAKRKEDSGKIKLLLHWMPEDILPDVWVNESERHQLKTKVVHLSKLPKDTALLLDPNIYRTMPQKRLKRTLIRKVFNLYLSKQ

| IC50 (SU-DHL-6 cells; Homo sapiens, SU-DHL-6, 336 h) | IC50 (EZH2) | IC50 (SU-DHL-6 cells) | SMILES | IC50 (SU-DHL-6 cells; Homo sapiens, 336 h) |
| --- | --- | --- | --- | --- |
| 10 nM | 0.57 nM | – | [2H]C([2H])(NC(=O)c1cc(Cl)c2c(c1C)OC(C)(C1CCC(NC3COC3)CC1)O2)c1c(SC)cc(C)[nH]c1=O (single isomer, unassigned) [Compound 59, isomer 1, 7-chloro-2,4-dimethyl-N-((6-methyl-4-(methylthio)-2-oxo-1,2-dihydropyridin-3-yl)methyl-d2)-2-(4-(oxetan-3-ylamino)cyclohexyl)benzo[d][1,3]dioxole-5-carboxamide] | – |
| 68 nM | 0.52 nM | – | CSc1cc(C)[nH]c(=O)c1CNC(=O)c1cc(Cl)c2c(c1C)OC(C)(C1CCN(CC3CC3(F)F)CC1)O2 (stereo not drawn) [Compound 31, 7-chloro-2-(1-((2,2-difluorocyclopropyl)methyl)piperidin-4-yl)-2,4-dimethyl-N-((6-methyl-4-(methylthio)-2-oxo-1,2-dihydropyridin-3-yl)methyl)benzo[d][1,3]dioxole-5-carboxamide] | – |
| – | 0.42 nM | 28.2 nM | CSc1cc(C)[nH]c(=O)c1CNC(=O)c1cc(Cl)c2c(c1C)OC(C)([C@H]1CC[C@@H](c3ccccn3)CC1)O2 (single isomer, unassigned) [Compound 39, isomer 1, 7-chloro-2,4-dimethyl-N-((6-methyl-4-(methylthio)-2-oxo-1,2-dihydropyridin-3-yl)methyl)-2-(4-(pyridin-2-yl)cyclohexyl)benzo[d][1,3]dioxole-5-carboxamide] | – |
| 35.3 nM | 0.52 nM | – | CSc1cc(C)[nH]c(=O)c1CNC(=O)c1cc(Cl)c2c(c1C)OC(C)([C@H]1CC[C@H](N[C@H]3C[C@@H](F)C3)CC1)O2 (single isomer, unassigned) [Compound 41, isomer 1, 7-chloro-2-(4-((cis-3-fluorocyclobutyl)amino)cyclohexyl)-2,4-dimethyl-N-((6-methyl-4-(methylthio)-2-oxo-1,2-dihydropyridin-3-yl)methyl)benzo[d][1,3]dioxole-5-carboxamide] | – |
| – | 0.34 nM | 26.3 nM | CSc1cc(C)[nH]c(=O)c1CNC(=O)c1cc(Cl)c2c(c1C)OC(C)([C@H]1CC[C@H](C(=O)N3CC(F)(F)C3)CC1)O2 (single isomer, unassigned; isomer 1) [Compound 47, isomer 1, 7-chloro-2-(4-(3,3-difluoroazetidine-1-carbonyl)cyclohexyl)-2,4-dimethyl-N-(di-deuterated(6-methyl-4-(methylthio)-2-oxo-1,2-dihydropyridin-3-yl)di-deuterated-methyl)benzo[d][1,3]dioxole-5-carboxamide] | – |
| – | 0.58 nM | 63.2 nM | CSc1cc(C)[nH]c(=O)c1CNC(=O)c1cc(Cl)c2c(c1C)OC(C)([C@H]1CC[C@@H](c3ccccn3)CC1)O2 (single isomer, unassigned) [Compound 39, isomer 2, 7-chloro-2,4-dimethyl-N-((6-methyl-4-(methylthio)-2-oxo-1,2-dihydropyridin-3-yl)methyl)-2-(4-(pyridin-2-yl)cyclohexyl)benzo[d][1,3]dioxole-5-carboxamide] | – |
| 10.2 nM | 0.46 nM | – | CSc1cc(C)[nH]c(=O)c1CNC(=O)c1cc(Cl)c2c(c1C)OC(C)([C@H]1CC[C@@H](NC3CC(F)(F)C3)CC1)O2 (single isomer, unassigned) [Compound 4, isomer 1, 7-chloro-2-(4-((3,3-difluorocyclobutyl)amino)cyclohexyl)-2,4-dimethyl-N-((6-methyl-4-(methylthio)-2-oxo-1,2-dihydropyridin-3-yl)methyl)benzo[d][1,3]dioxole-5-carboxamide] | – |
| 8.96 nM | 0.55 nM | – | CNC(=O)N1CC2CCC(C1)C2[C@]1(C)Oc2c(Cl)cc(C(=O)NCc3c(SC)cc(C)[nH]c3=O)c(C)c2O1 (mixture of isomers) [Compound 36, 8-(7-chloro-2,4-dimethyl-5-(((6-methyl-4-(methylthio)-2-oxo-1,2-dihydropyridin-3-yl)methyl)carbamoyl)benzo[d][1,3]dioxol-2-yl)-N-methyl-3-azabicyclo[3.2.1]octane-3-carboxamide] | – |
| 13.1 nM | 0.67 nM | – | CSc1cc(C)[nH]c(=O)c1CNC(=O)c1cc(Cl)c2c(c1C)OC(C)(C1CCC(N3CC(N(C)C)C3)CC1)O2 (single isomer, unassigned) [Compound 1, isomer 1, 7-chloro-2-(4-(3-(dimethylamino)azetidin-1-yl)cyclohexyl)-2,4-dimethyl-N-((6-methyl-4-(methylthio)-2-oxo-1,2-dihydropyridin-3-yl)methyl)benzo[d][1,3]dioxole-5-carboxamide] | – |
| 22.6 nM | 0.66 nM | – | CSc1cc(C)[nH]c(=O)c1CNC(=O)c1cc(Cl)c2c(c1C)OC(C)(C1CCN(CC3(C#N)CC3)CC1)O2 (stereo not drawn) [Compound 30, 7-chloro-2-(1-((1-cyanocyclopropyl)methyl)piperidin-4-yl)-2,4-dimethyl-N-((6-methyl-4-(methylthio)-2-oxo-1,2-dihydropyridin-3-yl)methyl)benzo[d][1,3]dioxole-5-carboxamide] | – |
| – | 0.44 nM | 22 nM | CSc1cc(C)[nH]c(=O)c1CNC(=O)c1cc(Cl)c2c(c1C)OC(C)([C@H]1CC[C@H](N[C@H]3C[C@@H](F)C3)CC1)O2 (single isomer, unassigned) [Compound 41, isomer 2, 7-chloro-2-(4-((cis-3-fluorocyclobutyl)amino)cyclohexyl)-2,4-dimethyl-N-((6-methyl-4-(methylthio)-2-oxo-1,2-dihydropyridin-3-yl)methyl)benzo[d][1,3]dioxole-5-carboxamide] | – |
| 14.1 nM | 0.7 nM | – | CSc1cc(C)[nH]c(=O)c1CNC(=O)c1cc(Cl)c2c(c1C)OC(C)(C1CCN(CC3COC3)CC1)O2 (stereo not drawn) [Compound 38, 7-chloro-2,4-dimethyl-N-((6-methyl-4-(methylthio)-2-oxo-1,2-dihydropyridin-3-yl)methyl)-2-(1-(oxetan-3-ylmethyl)piperidin-4-yl)benzo[d][1,3]dioxole-5-carboxamide] | – |
| – | 0.34 nM | 7.12 nM | [2H]C([2H])(NC(=O)c1cc(Cl)c2c(c1C)OC(C)([C@H]1CC[C@@H](N3CC4COCC4C3)CC1)O2)c1c(SC)cc(C)[nH]c1=O (single isomer, unassigned) [Compound 60, isomer 2, 7-chloro-2,4-dimethyl-N-((6-methyl-4-(methylthio)-2-oxo-1,2-dihydropyridin-3-yl)methyl-d2)-2-(4-(tetrahydro-1H-furo[3,4-c]pyrrol-5(3H)-yl)cyclohexyl)benzo[d][1,3]dioxole-5-carboxamide] | – |
| – | 0.56 nM | 9.79 nM | CSc1cc(C)[nH]c(=O)c1CNC(=O)c1cc(Cl)c2c(c1C)OC(C)([C@H]1CC[C@@H](NC3CC(F)(F)C3)CC1)O2 (single isomer, unassigned) [Compound 4, isomer 2, 7-chloro-2-(4-((3,3-difluorocyclobutyl)amino)cyclohexyl)-2,4-dimethyl-N-((6-methyl-4-(methylthio)-2-oxo-1,2-dihydropyridin-3-yl)methyl)benzo[d][1,3]dioxole-5-carboxamide] | – |

| SMILES | IC50 (SU-DHL-6 cells; Homo sapiens, SU-DHL-6, 336 h) | IC50 (EZH2) | IC50 (SU-DHL-6 cells) | IC50 (SU-DHL-6 cells; Homo sapiens, 336 h) |
| --- | --- | --- | --- | --- |
| CSc1cc(C)[nH]c(=O)c1CNC(=O)c1cc(Cl)c2c(c1C)OC(C)([C@H]1CC[C@@H](N3CC(N4CCCC4)C3)CC1)O2 (single isomer, unassigned) [Compound 43, isomer 1, 7-chloro-2,4-dimethyl-N-((6-methyl-4-(methylthio)-2-oxo-1,2-dihydropyridin-3-yl)methyl)-2-(4-(3-(pyrrolidin-1-yl)azetidin-1-yl)cyclohexyl)benzo[d][1,3]dioxole-5-carboxamide] | – | 0.49 nM | – | 59.3 nM |
